# Entries after “also recorded” stand apart in the source; their conditions may differ.
# Legend:
# [1] = pKa of the two PrC-210 amines from NMR pH titration; assay type: physicochemical; settings: pH titrations between pH 9.0 and 13.0; FIG. 3 legend: 3 pH units above physiological pH
# Protocol: (§1) We established the chemical structure profile of PrC-210 using Nuclear Magnetic Resonance (NMR) spectroscopy experiments. […] This structural stability of the PrC-210 mono-thiol form in this pH range remained for at least the observed 24 hours. […] In our pH titrations between pH 9.0 and 13.0, we saw clear structural changes to PrC-210; from these progressive changes, we calculated that the pKas of the two PrC-210 amines are all substantially above the pH (pH 7.2) of physiological conditions (FIG. 3).
# [2] = Pharmacokinetics study with [14]C-labeled PrC-210, intravenous, male rats; assay type: in vivo; settings: after 48 hr
# Excerpt: We were also interested to see whether PrC-210-cysteine disulfide formation is transient or permanent; permanent PrC-210 hetero-disulfide formation with cellular proteins would be expected to have an impact on protein function and could translate into unwanted, toxic, side effects and should be seen as PrC-210 residues showing up as urinary or fecal metabolites. […] C labeled PrC-210, we found only minimal metabolism of PrC-210 (1.07%) after 48 hr (FIG. 7, unpublished data). It is well described that i) disulfide binding is reversible (see, e.g., Koji Aoyama, Int. J. Mol. Sci. 2021, 22 (9), 5010) and ii) that there are also two highly efficient thiol reducing systems in the cell (see, e.g., Cumming et al., The Journal of Biological Chemistry vol. 279, No. 21, Issue of May 21, pp. 21749-21758, 2004), which reduce disulfide bonds between glutathione and proteins in non-oxidative stress situations (see, e.g., Koji Aoyama, Int. J. Mol. Sci. 2021, 22 (9), 5010). Based upon both our experimental findings and the published literature, it would then be logical that PrC-210 disulfide bonds with proteins would be governed by the same chemical and enzymatic processes.
# [3] = within its therapeutic window; cited from earlier work
# [4] = 1H NMR stability of PrC-210 in deuterated water under pH titration; assay type: physicochemical
# Protocol: as §1
# [5] = Consumption of PrC-210 thiol by hydrogen peroxide, with or without ammonium acetate; assay type: physicochemical; settings: pH 7
# Protocol: We believe that the increased reactivity of the thiol in the presence of negative charges, such as ammonium acetate, also occurs when PrC-210-thiol is in close proximity to other reactive structures, such as hydrogen peroxide. We have studied hydrogen peroxide, as it is a non-radical oxygen species with a much longer half-life than superoxide. We added hydrogen peroxide to an aqueous 5 mM solution of PrC-210 thiol at pH 7.
# Cytochrome C = Cytochrome C release in mouse heart after 8.68 Gy, PrC-210 given 24 hours after irradiation; assay type: in vivo; settings: PrC-210 0.3 MTD given 24 hours post-irradiation
# Protocol: Different from the first peak after 12 hours, this peak is not due to DNA damage and activation of the intrinsic apoptotic pathway, as there is neither an associated p53 nor 8-oxo-dG increase at 48 hours post-irradiation (data not shown), nor an activation of the intrinsic apoptotic pathway (FIG. 11B). This peak represents a massive damage of complex IV of the respiratory chain, which is located at the inner mitochondrial membrane. […] This discovery teaches us, that PrC-210 enters mitochondria and protects the proteins and lipids of the mitochondrial membranes against insults, insults which result in the release of cytochrome C. This invention applies to all diseases which are caused by damage of the mitochondria, such as aging and all age-related diseases, neurodegenerative diseases, diseases of the cardio-vascular system, such as arteriosclerosis, damage of the heart valves or main arteries, and in general to diseases caused by damage of the mitochondria membranes, the mitochondria DNA and proteins.
# [6] = test system: caspase 1, complement 3 (C3); assay: Inflammation markers in mouse brain after 8.68 Gy, PrC-210 given 24 hours after irradiation; assay type: in vivo, ICR mice; settings: 8.68 Gy whole-body, 0.3 MTD i.p. 24 hours after irradiation
# Protocol: To visualize the effect of radiation on the immune response of the mouse brain, ICR mice received 8.68 Gy whole-body radiation (FIG. 10) at Time “0.” O.3MTD, i.p. PrC-210 was administered 24 hours after irradiation. […] The same applied to the inflammation marker, complement 3 (C3) (FIG. 12B). […] Most important, this suppression was a direct suppression of the immune response and was not an indirect suppression through protection of proteins and lipids against damage. Radiation-induced protein damage would have triggered an apoptotic response, as it can be seen in the second peak of caspase 3/7 in FIG. 12C. Therefore, this experiment teaches that PrC-210 is able to enter the brain and directly suppresses post-irradiation inflammation.
# DBA/1J mice = assay: Paw swelling in DBA/1J mice immunized against collagen III; assay type: in vivo, mouse
# Excerpt: To show further, that this suppression of chronic inflammation applies generally to other organs than the brain, DBA/1J mice immunized against collagen III where treated systemically and topically with PrC-210.
# Caspase 8, Caspase 3/7 = assay: Apoptosis markers in mice irradiated with 8.68 Gy, PrC-210 given before irradiation; assay type: in vivo, mouse
# Protocol: To examine PrC-210-conferred protection in an animal model, we irradiated mice with 8.68 Gy and treated them with a 0.5MTD dose of PrC-210 30 minutes before irradiation. Normally, lethal radiation with 8.68 Gy leads to massive DNA damage and activation of the intrinsic apoptotic pathway. […] This means that the radiation insult didn't trigger a significant activation of the intrinsic apoptotic pathway nor did it trigger a mitotic arrest with p53 activation. […] This apoptotic suppression and protection lasted for the entire observation time of six days, which is a sign, that PrC-210 was still present after six days. When we looked at mouse plasma in the same experiment, we saw the same 6 days apoptotic suppression as in the brain in caspase 3/7 levels (FIG. 9F).
# SOD1^G93A mice = assay: Body weight of SOD1G93A ALS mice; assay type: in vivo, mouse; settings: systemic PrC-210 0.1 MTD, IP
# Excerpt: This experiment was designed to illuminate whether PrC-210 is able to stop the progression of diseases which are based on protein aggregation, such as Amyotrophic Lateral Sclerosis (ALS). […] Weight loss was progressive and was in exponential decline along with onset of ALS motor symptoms. […] As ALS pathology is based upon protein aggregation, the findings in this experiment support our inventive concept that PrC-210 is able to suppress protein misfolding and thereby suppress the pathology of these diseases. This invention applies to all neuronal, organ specific and systemic diseases which are caused by protein aggregations, such as neurodegenerative diseases, local and systemic amyloidosis, Type II diabetes, cataract of the eye, etc.
# C57 mice = assay: EAE model, paralysis score after immunization with MOG peptide; assay type: in vivo, mouse
# Protocol: To show, that PrC-210 suppresses neuroinflammation which is caused by an autoimmune induction of the disease, PrC-210 was applied 24 hours before immunization of C57 mice against MOG peptide (FIG. 13A), and immediately after first paralysis symptoms developed from the autoimmunization against myelin.
# [7] = 1H NMR stability / thiol reactivity of PrC-210 with ammonium acetate (disulfide formation); assay type: physicochemical
# [8] = 0.5 MTD PrC-210 before irradiation
smiles,measurement,setting,value
CNCC(CS)CNC [PrC-210],pKas of the two amines of PrC-210,[1],> 7.2
same,metabolism of PrC-210,[2],1.07%
same,toxic side effects,[3],no toxic side effects
same,stability at high pH after 72 hours (1H NMR),"[4]; deuterated water, pH 9.0, 72 hrs",significant change; also recorded: some instability
same,effect of the thiol blocker TCEP on PrC-210 stability,"[4]; water, pH 9.0, 72 hr, TCEP added, data not shown",doesn't influence the PrC-210 stability
same,effect of ammonium acetate on hydrogen peroxide consumption of PrC-210 thiol,"[5]; ammonium acetate (5 mM) added seconds before hydrogen peroxide (0.5 mM), 5 mM PrC-210 thiol",significant enhancement; also recorded: significantly enhanced
same,consumption of free PrC-210 thiol by hydrogen peroxide,[5]; aqueous 5 mM PrC-210 thiol,dose-dependent consumption
same,"cytochrome C release in heart muscle (second peak, 48 hours post-irradiation)",Cytochrome C,suppress cytochrome C release to background
same,inflammation marker complement 3 (C3) in mouse brain,[6],significantly suppressed
same,inflammasome marker caspase 1 in mouse brain,[6]; starting eight days after radiation,significantly suppressed
same,swelling of paws,"DBA/1J mice; 370 mM PrC-210 applied topically, started at paw swelling score higher than 10",significantly reduced
same,swelling of paws,"DBA/1J mice; twice weekly intraperitoneal injection of 0.075 MTD PrC-210, started with first paw symptoms",significantly reduced
same,Caspase 3/7 level in mouse plasma,"Caspase 8, Caspase 3/7; 0.5 MTD PrC-210 30 min before irradiation",suppressed to background
same,duration of apoptotic suppression and protection in brain,"Caspase 8, Caspase 3/7; 0.5 MTD PrC-210, entire observation time",six
same,duration of apoptotic suppression (caspase 3/7) in mouse plasma,"Caspase 8, Caspase 3/7; 0.5 MTD PrC-210, same experiment",6 days
same,Caspase 3/7 level in mouse brain,"Caspase 8, Caspase 3/7; [8]",suppressed to background
same,Caspase 8 level in mouse brain,"Caspase 8, Caspase 3/7; [8]",suppressed to background
same,body weight / weight loss,SOD1^G93A mice,immediate plateau in body weight loss
same,development and severity of paralysis symptoms,C57 mice; twice weekly intraperitoneal PrC-210 started 24 hours before immunization with MOG peptide,significantly suppressing
same,development and severity of paralysis symptoms,C57 mice; twice weekly intraperitoneal PrC-210 started when first paralysis symptoms were observed,significantly suppressing
same,half-life,"[7]; aqueous solution with ammonium acetate, ammonium acetate added to aqueous PrC-210 mono-thiol solution, pH 7.2 (FIG. 6A)",3.1 h
same,stability of PrC-210 with ammonium acetate and TCEP (1H NMR),"[7]; deuterated water with ammonium acetate and thiol blocker TCEP, pH 7.0, 24 hours",remains stable
same,structural change of PrC-210 with ammonium acetate (1H NMR),"[7]; deuterated water with ammonium acetate, pH 7.0, 1 hour and 24 hours",substantial structural changes within hours
same,PrC-210 half-life in water,"[7]; water, previously observed",days

# Source: US20260232608A1, “AMINOTHIOLS FOR THE TREATMENT OF CONDITIONS CHARACTERIZED BY PROTEIN MISFOLDING OR AGGREGATION, MITOCHONDRIAL DYSFUNCTION, OR CHRONIC INFLAMMATION” (Obvia Pharmaceuticals, Ltd., priority 2023, published 2026)
